Experimental data: PubChem BioAssay (NCI)
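Dose response: 5 concentrations. Exposure: 48 h. Format: 96-well plates. Endpoint: linear interpolation; highest concentration if not reached. GI50: concentration for 50% inhibition of growth. TGI denotes the concentration required for complete inhibition of growth.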

Experiments:
Experiment in all cases: NCI tumour cell line growth inhibition, 48 h
OVCAR-3 ovarian = tested on: OVCAR-3 ovarian
DLD-1 colon = tested on: DLD-1 colon
MALME-3M melanoma = tested on: MALME-3M melanoma
HCC-2998 colon = tested on: HCC-2998 colon
NCI-H226 lung = tested on: NCI-H226 lung
HCT-116 colon = tested on: HCT-116 colon
HOP-92 NSCLC = tested on: HOP-92 NSCLC
UACC-62 melanoma = tested on: UACC-62 melanoma
A549 NSCLC = tested on: A549 NSCLC
SF-295 CNS = tested on: SF-295 CNS

SMILES | TGI (OVCAR-3 ovarian) | TGI (DLD-1 colon) | TGI (MALME-3M melanoma) | TGI (HCC-2998 colon) | TGI (NCI-H226 lung) | TGI (HCT-116 colon) | TGI (HOP-92 NSCLC) | TGI (UACC-62 melanoma) | TGI (A549 NSCLC) | TGI (SF-295 CNS) | GI50 (OVCAR-3 ovarian) | GI50 (DLD-1 colon) | GI50 (MALME-3M melanoma) | GI50 (HCC-2998 colon) | GI50 (NCI-H226 lung) | GI50 (HCT-116 colon) | GI50 (HOP-92 NSCLC) | GI50 (UACC-62 melanoma) | GI50 (A549 NSCLC) | GI50 (SF-295 CNS)
Cc1c2ccccc2c(C)c2c3c(ccc12)C(=O)C=CC3=O | 38.3 µM | 40.8 µM | > 79.2 µM | > 100 µM | > 100 µM | 49.7 µM | 32.4 µM | > 100 µM | > 100 µM | > 31.6 µM |  |  |  |  |  |  |  |  |  | 
C/C(CN1C(=O)c2ccccc2C1=O)=N\NS(=O)(=O)c1ccccc1 | > 100 µM | > 100 µM | > 100 µM | > 100 µM | > 100 µM | > 100 µM | > 100 µM | > 100 µM | > 100 µM | > 100 µM |  |  |  |  |  |  |  |  |  | 
CCOP(=O)(CCP(=O)(OCC)OCC)OCC.C[CH2][Sn]([Cl])([Cl])[CH2]C | > 100 µM | > 79 µM | 30.6 µM | > 100 µM | 42.7 µM | > 100 µM | 39.2 µM | 55 µM | > 100 µM | > 100 µM | > 84.3 µM | 27.7 µM | 15.3 µM | > 69.4 µM | 20.3 µM | > 67.3 µM | 19.7 µM | 34 µM | > 100 µM | > 81.8 µM
COc1c(OC(C)=O)cc2c(OC(C)=O)c1CC(C)CC(OC)C(O)C(C)/C=C(\C)C(OC(N)=O)C(OC)/C=C\C=C(/C)C(=O)N2 (stereo not given) | > 100 µM | > 100 µM | > 100 µM | > 100 µM | > 100 µM | > 100 µM | > 100 µM | > 100 µM | > 100 µM | > 100 µM |  |  |  |  |  |  |  |  |  | 
OC(c1ccccc1)(c1ccccc1)c1ccccn1 | > 100 µM | > 100 µM | > 100 µM | > 100 µM | > 100 µM | > 100 µM | > 100 µM | > 100 µM | > 100 µM | > 100 µM |  |  |  |  |  |  |  |  |  | 
COc1ccc2c(=O)c([Se]c3coc4cc(OC)ccc4c3=O)coc2c1 | > 100 µM | > 100 µM | > 100 µM | > 100 µM | > 100 µM | 44.1 µM | > 100 µM | > 100 µM | > 100 µM | > 100 µM |  |  |  |  |  |  |  |  |  | 
CCC(=O)C1=C(OC(C)=O)C2Cc3c(n(C)c4ccccc34)C(C1)N2C (stereo not given) | > 100 µM | 74.5 µM | > 100 µM | > 100 µM | > 100 µM | 85.1 µM | > 100 µM | > 100 µM | > 100 µM | > 100 µM |  |  |  |  |  |  |  |  |  | 
COc1cc2cc3c4c(cc(OC)c(OC)c4c2cc1OC)CCN3C(=O)CCCC(=O)O | > 100 µM | > 100 µM | > 100 µM | > 100 µM | > 100 µM | > 100 µM | > 100 µM | > 100 µM | > 100 µM | > 100 µM |  |  |  |  |  |  |  |  |  | 
Nc1nnc2nc(CC(=O)/C=C/c3ccccc3)c(=O)[nH]n12 | > 100 µM | > 100 µM | > 100 µM | > 100 µM | > 100 µM | > 100 µM | > 100 µM | > 100 µM | > 100 µM | > 100 µM |  |  |  |  |  |  |  |  |  | 
CC(C)(O)[C@@H]1CCC(C)([C@H]2[C@@H](O)CC3(C)C4CC(OC5OC(CO)C(O)C(O)C5O)C5C(C)(C)[C@@H](OC6OCC(O)C(O)C6O)CC[C@@]56C[C@@]46CC[C@]23C)O1 (stereo not given in full) | > 100 µM | > 100 µM | > 100 µM | > 100 µM | > 100 µM | > 100 µM | > 100 µM | > 100 µM | > 100 µM | > 100 µM |  |  |  |  |  |  |  |  |  | 
CC(=O)CC(=O)CCCC(=O)Nc1ccc(Cl)cc1C | > 100 µM | > 100 µM | > 100 µM | > 100 µM | > 100 µM | > 100 µM | > 100 µM | > 100 µM | > 100 µM | > 100 µM |  |  |  |  |  |  |  |  |  | 
CCOc1ccccc1NC(=O)C(=O)CC(=O)C1=C(C)Nc2ccccc2S1 | > 100 µM | > 100 µM | > 100 µM | > 100 µM | > 100 µM | > 100 µM | > 100 µM | > 100 µM | > 100 µM | > 100 µM |  |  |  |  |  |  |  |  |  | 
Cc1cc2c3ccccc3n(C)c2c2c1C(=O)c1ccccc1C2=O | 54.1 µM | 31.8 µM | 35.4 µM | 43.6 µM | 30.5 µM | 32.4 µM | 35 µM | 57.3 µM | 58 µM | 41.2 µM |  |  |  |  |  |  |  |  |  | 
O=c1[nH]c(=S)[nH]c2c1sc(=S)n2-c1ccccc1 | > 100 µM | > 100 µM | > 100 µM | > 100 µM | > 100 µM | > 100 µM | > 100 µM | > 100 µM | > 100 µM | > 100 µM |  |  |  |  |  |  |  |  |  | 
